# According to patent US4434172A, “2-Substituted-phenyl-5-alkylthiazolidine-4-one” (priority 1980, dated 1984):
# Experiments:
# [1] = system: peptic ulcer due to pyloric ligation; assay: Effect on peptic ulcer due to pyloric ligation; assay type: in vivo, male rats; conditions: 100 mg/kg, intraperitoneal; for Ulcer coefficient: 15 hours after pyloric ligation, control 41.1; for Rate of suppression of ulcer: versus control
# Protocol: (1) Effect on peptic ulcer due to pyloric ligation
# Six groups (10 animals per group) of male rats weighting 180 to 200 g were subjected to ligation of their pylori under ether-anesthesia after fasting for 48 hours according to the method of Shay et al. (refer to Gastroenterology, 5, page 43 (1945)).
# Just after subjecting to ligation, each of the present compound suspended in an aqueous physiological saline solution was intraperitoneally administered to each rat, the control being poured to with an aqueous physiological saline solution. Then, after 15 hours of fasting without taking water, the rats were sacrificed with ether and their stomachs were removed to examine under a microscope for anatomy. The length and width of the thus-formed ulcer in the stomach were determined and expressed by the product (mm^2), and the total sum of the products was represented as the ulcer coefficient.
# [2] = system: peptic ulcer due to acetic acid; assay: Effect on peptic ulcer due to acetic acid (duodenal); assay type: in vivo, male rats; conditions: for coefficient (ulcer coefficient) / Rate of suppression of ulcer: 100 mg/kg, oral; for coefficient (ulcer coefficient): 3 times a day for 10 days from third day of operation, control 8.0; for Rate of suppression of ulcer: 3 times a day for 10 days, versus control
# Description: The inventors of the present invention, taking into account of these situations, added to the above-mentioned method of evaluation the effect of accelerating the cure of the peptic ulcer by orally administering the present compound and a commercialized anti-peptic ulcer medicine, respectivey to rats to which duodenal peptic ulcer due to acetic acid (refer to Okabe, 1971) considered to be most closely resembling to human peptic ulcer has been artificially formed.
# (2) Effect on peptic ulcer due to acetic acid
# Following the method of Okabe et al (refer to Amer. J. Dig. Dis., 16, […], 6 groups (15 animals per group) of male rats weighing 240 to 260 g were subjected to laparotomy under ether anesthesia in which a metal circular frame was placed on the serosa at a distance of 5 to 7 mm from the duodenal pylorus, 0.06 ml of glacial acetic acid was poured into the frame. After 30 seconds, the liquid containing the acetic acid was removed and then the frame was removed. The test compound suspended in an aqueous physiological saline solution was orally administered to the rat 3 times a day from the third day of the operation for consecutive 10 days. After the administration was over, the rats were sacrificed with ether, and their duodenum was removed to observe under a microscope for anatomy. The length and width of the thus-formed ulcer were measured and their product (expressed with mm^2) was recorded as the ulcer coefficient.
# [3] = Acute toxicity test, oral; design: species or system Female ICR-mice; conditions: mouse, in vivo, mortality observed for a week, Litchfield-Wilcoxon
# Protocol: Female ICR-mice of body weight of 20 to 24 g, 5 weeks after birth were used.
# Eight animal per group were kept in a transparent polycage at room temperature of 23°±1° C., and RH of 60 to 70%.
# After minutely pulverizing each one of the present compounds, the pulverized compound was suspended in an aqueous 5% sodium carboxymethylcellulose solution containing 20% of Tween-80. The aqueous suspension was forcibly orally administered by a metal stomach tube, the dose rate having been adjusted by changing the concentration of the present compound in the aqueous suspension.
# peptic ulcer = conditions: cited from earlier work
SMILES,Ulcer coefficient [1],Rate of suppression of ulcer [1],coefficient (ulcer coefficient) [2],Rate of suppression of ulcer [2],LD50 at 168 h [3],effect on ulcer-curing (peptic ulcer; commercialized medicine),side effects (peptic ulcer; in vivo),Rate of suppression of ulcer ([1]; listed as Positive control),curative effect / effectiveness (in words) ([2]; acetic acid ulcer)
"COc1cc(C2NC(=O)C(C)S2)cc(OC)c1OC (stereo not shown) [Compound 1, 2-(3,4,5-trimethoxyphenyl)-5-methylthiazolidine-4-one]",7.2 mm^2,82.5%,2.8 mm^2,77.5%,6400 mg/kg,,,,
"COc1ccc(C2NC(=O)C(C)S2)cc1OC (stereo not shown) [Compound 2, 2-(3,4-dimethoxyphenyl)-5-methylthiazolidine-4-one]",6.5 mm^2,84.2%,2.4 mm^2,70.0%,> 8000 mg/kg,,,,
"COc1ccccc1C1NC(=O)C(C)S1 (stereo not shown) [Compound 3, 2-(2-methoxyphenyl)-5-methylthiazolidine-4-one]",3.6 mm^2,91.2%,1.3 mm^2,83.8%,> 8000 mg/kg,,,,
"COc1ccc(C2NC(=O)C(C)S2)cc1 (stereo not shown) [Compound 4, 2-(4-methoxyphenyl)-5-methylthiazolidine-4-one]",4.1 mm^2,90.0%,1.5 mm^2,81.3%,> 8000 mg/kg,,,,
CC1(C)[C@@H](OC(=O)CCC(=O)O)CC[C@]2(C)[C@H]3C(=O)C=C4[C@@H]5C[C@@](C)(C(=O)O)CC[C@]5(C)CC[C@@]4(C)[C@]3(C)CC[C@@H]12 [carbenoxolone],,,,,,excellent accelerating effect on the ulcer-curing,aldosterone-like side effects to cause hypertension and weakening of muscular function,,
"CC(C)=CCCC(C)=CCCC(C)=CCCC(=O)OCC=C(C)CCC=C(C)C [gefarnate, 3,7dimethyl-2,6-octadienyl 5,9,13trimethyl-4,8,12-tetradecatrienoate, reference compound]",36.1 mm^2,about 12%,6.4 mm^2,20.0%,,,,12.2%,only a slight effectiveness
